Test [1] is described as follows: Inhibition of human HDAC1 (379 to 382 residues) using RHKKAc-AMC as substrate incubated for 60 mins by […] assay.
The target in test [2] is T1, Histone deacetylase 1 (Homo sapiens, UniProt Q13547). The experiment in a line: Inhibition of human HDAC1.
Test [3] deals with T2, Histone deacetylase 3 (Homo sapiens, UniProt O15379). The experiment in a line: Inhibition of human HDAC3.
In test [4] the target is T3, Histone deacetylase 2 (Homo sapiens, UniProt Q92769). The experiment in a line: Inhibition of human HDAC2.
T3 sequence (Q92769 whole entry): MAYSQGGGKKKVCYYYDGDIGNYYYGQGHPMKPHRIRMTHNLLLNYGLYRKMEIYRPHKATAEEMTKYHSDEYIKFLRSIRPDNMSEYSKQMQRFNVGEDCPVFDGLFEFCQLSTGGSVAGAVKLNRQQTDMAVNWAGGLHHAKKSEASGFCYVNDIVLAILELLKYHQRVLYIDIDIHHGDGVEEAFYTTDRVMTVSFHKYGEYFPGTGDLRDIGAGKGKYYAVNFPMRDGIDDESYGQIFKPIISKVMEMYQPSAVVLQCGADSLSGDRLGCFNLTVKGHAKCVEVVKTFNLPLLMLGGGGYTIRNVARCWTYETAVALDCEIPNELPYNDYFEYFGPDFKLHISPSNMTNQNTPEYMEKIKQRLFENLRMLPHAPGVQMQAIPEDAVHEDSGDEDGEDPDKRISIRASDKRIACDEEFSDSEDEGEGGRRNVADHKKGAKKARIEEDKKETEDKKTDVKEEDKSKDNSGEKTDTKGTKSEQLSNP
A further test addresses T4, Histone deacetylase 11 (Homo sapiens, UniProt Q96DB2).
T4 sequence (Q96DB2 whole entry): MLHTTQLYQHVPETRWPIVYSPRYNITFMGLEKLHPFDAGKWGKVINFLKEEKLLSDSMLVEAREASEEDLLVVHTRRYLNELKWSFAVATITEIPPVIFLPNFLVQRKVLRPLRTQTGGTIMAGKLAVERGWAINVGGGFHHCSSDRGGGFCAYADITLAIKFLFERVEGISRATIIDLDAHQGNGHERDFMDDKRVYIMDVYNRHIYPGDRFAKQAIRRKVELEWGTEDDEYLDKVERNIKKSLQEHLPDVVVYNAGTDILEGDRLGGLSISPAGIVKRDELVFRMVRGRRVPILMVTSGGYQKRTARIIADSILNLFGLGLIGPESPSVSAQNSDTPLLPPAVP
As to the kind of experiment: Inhibition of human recombinant full length FLAG-tagged HDAC11 transfected in HEK293T cells using Ac-ETDKrnyr-AMC as substrate incubated for 30 mins by fluorescence based analysis.

Test [5] addresses T1, Histone deacetylase 1. The experiment in a line: Inhibition of HDAC1 (unknown origin).
Test [6] deals with T5, Protein deacetylase HDAC6 (Homo sapiens, UniProt Q9UBN7).
T5 sequence (Q9UBN7 whole entry): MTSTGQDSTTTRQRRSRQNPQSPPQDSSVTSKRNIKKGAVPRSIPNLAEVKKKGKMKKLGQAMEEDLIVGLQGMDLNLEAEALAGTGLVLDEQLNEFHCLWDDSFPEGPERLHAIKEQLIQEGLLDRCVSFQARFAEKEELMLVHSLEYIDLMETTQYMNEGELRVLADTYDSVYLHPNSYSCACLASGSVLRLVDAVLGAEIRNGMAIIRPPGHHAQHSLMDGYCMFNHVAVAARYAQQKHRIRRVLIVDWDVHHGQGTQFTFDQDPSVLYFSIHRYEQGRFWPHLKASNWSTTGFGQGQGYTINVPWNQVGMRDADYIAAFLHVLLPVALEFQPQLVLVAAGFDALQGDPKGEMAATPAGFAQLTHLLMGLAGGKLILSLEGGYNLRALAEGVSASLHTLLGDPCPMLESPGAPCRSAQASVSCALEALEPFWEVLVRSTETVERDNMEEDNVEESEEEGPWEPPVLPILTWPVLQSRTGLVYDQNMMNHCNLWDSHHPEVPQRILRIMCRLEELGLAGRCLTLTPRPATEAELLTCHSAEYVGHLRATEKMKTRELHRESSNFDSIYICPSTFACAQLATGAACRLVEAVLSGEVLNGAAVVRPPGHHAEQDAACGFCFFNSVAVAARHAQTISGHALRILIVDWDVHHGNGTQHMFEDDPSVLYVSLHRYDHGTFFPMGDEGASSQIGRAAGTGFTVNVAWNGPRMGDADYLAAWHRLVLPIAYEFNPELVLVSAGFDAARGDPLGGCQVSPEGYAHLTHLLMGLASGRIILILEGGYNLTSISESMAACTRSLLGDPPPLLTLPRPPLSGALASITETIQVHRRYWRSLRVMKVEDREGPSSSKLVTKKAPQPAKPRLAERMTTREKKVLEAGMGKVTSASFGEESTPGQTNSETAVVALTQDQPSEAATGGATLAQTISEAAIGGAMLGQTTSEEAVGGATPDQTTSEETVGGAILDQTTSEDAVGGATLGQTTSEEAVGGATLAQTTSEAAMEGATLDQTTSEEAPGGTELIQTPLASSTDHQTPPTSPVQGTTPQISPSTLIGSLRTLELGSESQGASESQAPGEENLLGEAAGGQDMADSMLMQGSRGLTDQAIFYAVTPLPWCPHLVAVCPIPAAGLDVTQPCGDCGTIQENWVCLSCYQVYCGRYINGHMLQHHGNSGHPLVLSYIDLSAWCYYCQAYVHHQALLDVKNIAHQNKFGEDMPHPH
As to the kind of experiment: Inhibition of HDAC6 (unknown origin).

The next test deals with T6, Histone deacetylase 8 (Homo sapiens, UniProt Q9BY41).
T6 sequence (Q9BY41 whole entry): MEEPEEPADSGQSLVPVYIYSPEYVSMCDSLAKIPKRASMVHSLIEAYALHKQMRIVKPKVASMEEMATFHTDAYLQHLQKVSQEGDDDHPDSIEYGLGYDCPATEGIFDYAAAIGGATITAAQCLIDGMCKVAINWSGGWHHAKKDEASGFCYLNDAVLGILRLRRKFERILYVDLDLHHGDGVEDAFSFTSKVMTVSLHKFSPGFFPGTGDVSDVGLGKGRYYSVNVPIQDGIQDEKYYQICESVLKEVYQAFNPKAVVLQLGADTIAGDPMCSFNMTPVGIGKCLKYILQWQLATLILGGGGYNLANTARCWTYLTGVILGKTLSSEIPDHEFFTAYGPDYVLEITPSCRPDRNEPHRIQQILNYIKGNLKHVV
As to the kind of experiment: Inhibition of HDAC8 (unknown origin).

Test [7] concerns the target T2, Histone deacetylase 3. The experiment in a line: Inhibition of HDAC3 (unknown origin).
In test [8] the target is T3, Histone deacetylase 2. As to the kind of experiment: Inhibition of HDAC2 (unknown origin).
Another test has as its target Histone deacetylase 4 (Homo sapiens, UniProt P56524). As to the kind of experiment: Inhibition of HDAC4 (unknown origin).

Bounds are passed on as bounds.

T1 sequence (Q13547 whole entry): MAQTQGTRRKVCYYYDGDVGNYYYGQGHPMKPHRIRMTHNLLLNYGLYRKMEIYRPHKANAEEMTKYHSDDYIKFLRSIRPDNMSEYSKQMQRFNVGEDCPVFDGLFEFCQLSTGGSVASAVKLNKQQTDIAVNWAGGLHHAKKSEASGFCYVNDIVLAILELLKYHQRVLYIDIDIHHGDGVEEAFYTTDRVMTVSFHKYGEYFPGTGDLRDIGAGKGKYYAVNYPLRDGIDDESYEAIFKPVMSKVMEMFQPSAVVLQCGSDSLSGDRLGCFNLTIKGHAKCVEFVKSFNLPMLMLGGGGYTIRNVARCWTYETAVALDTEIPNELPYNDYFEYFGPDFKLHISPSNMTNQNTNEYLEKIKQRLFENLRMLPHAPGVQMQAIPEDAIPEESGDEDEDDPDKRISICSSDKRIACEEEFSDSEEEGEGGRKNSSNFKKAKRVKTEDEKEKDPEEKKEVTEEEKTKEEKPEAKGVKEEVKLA
T2 sequence (O15379 whole entry): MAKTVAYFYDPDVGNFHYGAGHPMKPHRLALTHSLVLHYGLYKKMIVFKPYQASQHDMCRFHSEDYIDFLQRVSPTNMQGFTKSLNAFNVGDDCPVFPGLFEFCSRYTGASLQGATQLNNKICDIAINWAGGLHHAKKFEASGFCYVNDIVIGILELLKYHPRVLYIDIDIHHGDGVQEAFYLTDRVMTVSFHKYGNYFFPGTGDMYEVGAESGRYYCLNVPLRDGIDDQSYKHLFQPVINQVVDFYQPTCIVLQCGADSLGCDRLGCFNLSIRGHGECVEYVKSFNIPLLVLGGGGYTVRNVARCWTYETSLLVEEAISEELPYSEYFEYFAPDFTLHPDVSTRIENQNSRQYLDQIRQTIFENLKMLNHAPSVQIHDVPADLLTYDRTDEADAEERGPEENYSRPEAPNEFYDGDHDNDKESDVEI
Sequence of Histone deacetylase 4 (P56524 whole entry): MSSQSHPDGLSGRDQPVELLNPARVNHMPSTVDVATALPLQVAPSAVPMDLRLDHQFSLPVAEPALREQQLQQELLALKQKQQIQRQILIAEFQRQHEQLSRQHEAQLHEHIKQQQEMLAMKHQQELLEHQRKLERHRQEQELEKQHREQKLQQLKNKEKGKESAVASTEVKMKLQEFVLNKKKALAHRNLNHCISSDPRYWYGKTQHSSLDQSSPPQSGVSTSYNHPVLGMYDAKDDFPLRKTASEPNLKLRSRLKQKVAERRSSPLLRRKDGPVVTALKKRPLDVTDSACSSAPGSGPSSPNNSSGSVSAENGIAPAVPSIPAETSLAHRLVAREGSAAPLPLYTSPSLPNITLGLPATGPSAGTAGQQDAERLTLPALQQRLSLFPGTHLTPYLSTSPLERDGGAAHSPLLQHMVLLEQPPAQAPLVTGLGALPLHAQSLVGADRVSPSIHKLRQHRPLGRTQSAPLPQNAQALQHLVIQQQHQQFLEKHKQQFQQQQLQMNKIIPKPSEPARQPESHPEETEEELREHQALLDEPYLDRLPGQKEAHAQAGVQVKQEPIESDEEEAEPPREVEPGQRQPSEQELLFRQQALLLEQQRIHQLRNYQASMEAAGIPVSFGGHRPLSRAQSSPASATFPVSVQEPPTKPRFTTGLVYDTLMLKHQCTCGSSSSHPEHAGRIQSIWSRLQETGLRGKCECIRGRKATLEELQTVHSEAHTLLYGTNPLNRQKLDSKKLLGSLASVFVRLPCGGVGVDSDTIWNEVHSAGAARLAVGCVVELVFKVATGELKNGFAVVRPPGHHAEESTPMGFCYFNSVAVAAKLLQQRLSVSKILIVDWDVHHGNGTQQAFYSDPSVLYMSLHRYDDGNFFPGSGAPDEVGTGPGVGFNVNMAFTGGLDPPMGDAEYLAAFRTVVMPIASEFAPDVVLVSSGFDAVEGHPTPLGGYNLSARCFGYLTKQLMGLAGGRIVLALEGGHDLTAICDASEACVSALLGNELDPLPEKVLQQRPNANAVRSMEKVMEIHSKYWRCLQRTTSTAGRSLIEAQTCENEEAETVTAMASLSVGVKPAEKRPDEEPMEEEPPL

As usually defined, the IC50 is the concentration needed to halve the response being measured. For the molecule `CCCCNNC(=O)c1ccc(Br)cc1`, the concentration for half-maximal inhibition (IC50) in test [1] was found to be 133 nM.

In the case of `CCCNNC(=O)CCCCCCC(=O)Nc1ccccc1`, the 50% inhibitory concentration (IC50) came to 828 nM at Histone deacetylase 1 [2], 379 nM at Histone deacetylase 3 [3] and 530 nM against Histone deacetylase 2 [4].

Regarding `CCCCCCCCCCCCCCCCNNC(=O)c1ccc(N(C)C)cc1`, on Histone deacetylase 11, the IC50 worked out at 910 nM.

Consider `CCCNNC(=O)c1ccc(Nc2nccc(N(C)c3ccc4c(C)n(C)cc4c3)n2)cc1`, for which the half-inhibitory concentration (IC50) on Histone deacetylase 1 [5] is 0.42 nM; in test [6], 8960 nM.

Turning to `CCCC(CCC)C(=O)N[C@@H](Cc1ccccc1)C(=O)NNc1ccccc1`, the half-maximal inhibitory concentration (IC50) against Histone deacetylase 8 came out at 1540 nM; on Histone deacetylase 1 [5], 390 nM; at Histone deacetylase 3 [7], 1490 nM; on Histone deacetylase 2 [8] it was 2020 nM; on Histone deacetylase 4 it was 3180 nM.

At Histone deacetylase 4, `CCCC(CCC)C(=O)O` [VALPROIC ACID] returned an IC50 of over 100000 nM.

For the origin of these results see ChEMBL document CHEMBL5523771, “Hydrazides as Inhibitors of Histone Deacetylases” (J Med Chem, 2024).
